Results published in US7816560B1, “Long chain n-alkyl compounds and oxa-derivatives thereof” (Thomas Jefferson University, priority 1999, dated 2010).
Read-outs that look alike come from different tables or passages of the source.

How the values were obtained:
HBV [1] = assay: Intracellular HBV DNA in HepG2.2.15 cells by Southern blot; format: cell-based, hepatitis B virus; conditions: seven days
Method: Intracellular DNA analysis: Hep G2.2.15 cells were either left untreated or treated with the compounds listed above for seven days and the total DNA extracted as described (Mehta et al., ibid). DNA (20 μg) was digested with HindIII, resolved through a 1.2% agarose gel and transferred to nylon membranes. Membranes were then hybridized with a ^32P labeled probe containing the total HBV genome and developed as described (Lu et al., Proc. Natl. Acad. Sci. USA 94:2380-2385, 1997). The relaxed circular (rc), linear (lin), and closed circular (CCC) DNA were confirmed by enzymatic digestion.
An infected cell contains several forms of HBV DNA which represent different stages in the HBV life cycle. For example, covalently closed circular DNA (CCC DNA) is the nuclear form of the DNA and is thought to be the viral template (Heermann & Gerlich, 1992). In contrast, the relaxed circular DNA (re DNA) and linear forms (lin) are associated with the viral particle and their presence is an indicator of encapsidation of the viral pre-genomic RNA and the subsequent reverse transcription into progeny DNA (Ganem, Curr. Top. Microbiol. Immunol. 168:61-83, 1991). […] The amount of virus associated with the cells was detected seven days later by Southern blot analysis. The locations of the HBV relaxed circular DNA (rcDNA), covalently close circular (CCC) DNA, and single stranded (SS) DNA was identified by relative mobility.

HBV polymerase = molecular target: T1, HBV polymerase (Hepatitis B virus genotype D subtype ayw, UniProt P03156); assay: Endogenous polymerase assay on purified HBV virions; format: biochemical; conditions: 69 μM
T1 construct: HBV virions were purified from the culture medium of untreated cells by ultracentrifugation and the polymerase activity (in the presence of the indicated compounds) tested; expressed in transfected cells; host or cells: Hep G2.2.15 (HepG2 stably transfected with a dimer of the HBV genome); virions pelleted from the culture medium
Method: Endogenous polymerase assay: Media containing HBV from Hep G2.2.15 cells was pelleted through 20% sucrose (SW 28 Rotor, 24,000 RPM) for 16 hours and the pellet re-suspended in 50 μl of a mixture containing 50 mM Tris (pH 7.5), 75 mM NH4Cl, 1 mM EDTA, 25 mM MgCl2, 0.1% β-mercaptoethanol, 0.5% NP-40, 0.4 mM each of dATP, dGTP, dTTP and 10 μl of P^32 labeled dCTP. […] DNA was purified by a phenol/chloroform extraction and ethanol precipitation.
HBV DNA replication involves the conversion of a pregenomic RNA (pgRNA) into DNA by the action of the HBV polymerase. Current nucleoside analogue drugs (e.g., 3TC) for treating HBV target this reaction, preventing the formation and secretion of HBV viral DNA. Because the iminosugar N-nonyl-DGJ prevents the formation of HBV rc DNA, it was important to determine whether N-nonyl-DGJ was acting by inhibiting the elongation step of the polymerase. HBV virions from normal and drug treated Hep G2.2.15 cells were purified and the endogenous polymerase activity was measured. HBV virions were purified from the culture medium of untreated cells by ultracentrifugation and the polymerase activity (in the presence of the indicated compounds) tested by the method of Ganem et al. (1998). Briefly, partially purified viral particles were incubated overnight with the indicated concentrations of compound and 10 μCi of ^32P-dCTP. Viral DNA was purified by phenol extraction and ethanol precipitation and resolved on a 1.2% agarose gel. The gel was dried and viral DNA bands detected using a Phospholmager.

HBV [2] = assay: Secreted HBV DNA by Southern blot hybridization; format: cell-based, hepatitis B virus; conditions: HepG2.2.15 cells, seven days, 20 μg/ml
Method: Secreted DNA analysis: Secreted DNA analysis was performed by the method of Wei et al. (J. Virol. 70:6455-6458, 1996). […] Media containing drug was changed every two days and on the 7th day the media taken and the virus concentrated by pelleting through 20% sucrose for 16 hours (SW 41 rotor, 36,000 RPM). Virus was resuspended in 400 μL of 10 mM TRIS (pH 7.9), 10 mM EDTA (pH 8.0), and 10 mM MgCl2. Samples were split into two 200 μL aliquots and labeled as +Dnase and −Dnase. To both tubes, 15 μl of proteinase K was added to a final concentration of 750 μg/ml for one hour at 37° C. After one hour, 10 pl Dnase was added to the tube labeled +Dnase (final concentration is 50 units/ml) and incubated at 37° C. for one hour. SDS was added to a final concentration of 1% and additional proteinase K added to a final concentration of 500 μg/ml and the reaction allowed to proceed at 37° C. for 3-4 hours. DNA was than purified by phenol/chloroform extraction. DNA was separated on 1% agarose gel and probed with ^32P labeled probes as described (Mehta et al., Proc. Natl. Acad. Sci. USA 94:1822-1827, 1997).
HepG2.2.15 cells were grown for seven days in the absence or presence of NB-DNJ (1000 μg/ml), NN-DNJ (20 μg/ml) or NN-DGJ (20 μg/ml), respectively. After seven days, virus was isolated from these cell cultures, concentrated, and purified. Secreted HBV DNA was detected by Southern blot hybridization. HBV viral DNA from untreated cells was readily detected. The secretion of HBV DNA from treated HepG2.2.15 was also detected.

BVDV = BVDV plaque reduction and yield assays in MDBK cells; format: cell-based, bovine viral diarrhea virus
Hep G2.2.15 cells = assay: MTT toxicity in Hep G2.2.15 cultures; conditions: Hep G2.2.15 cultures at conclusion of experiment (10 days)
α-glucosidase = assay: Inhibition of α-glucosidase; format: biochemical; conditions: Yes/No
Description: The inhibitory activity (IC50) and the cell cytotoxicity (IC50) of various compounds, as well as their effect on α-glucosidase and ceramide glucosyl transferase, are shown in Table 2.

Hepatitis B virus (HBV) = assay: Secretion of enveloped HBV from Hep G2.2.15 cells, antigen capture/PCR assay; format: cell-based; conditions: for IC50: Hepatitis B virus
Description: Pairs of wells were used for each concentration point.
^2IC 50: The concentration of compound that prevented the secretion of 50% of the amount of HBV detected in the medium from wells containing untreated cultures.

[3] = Toxicity / cell cytotoxicity in MDBK cells; format: cell-based; conditions: bovine

T1 sequence (P03156 whole entry): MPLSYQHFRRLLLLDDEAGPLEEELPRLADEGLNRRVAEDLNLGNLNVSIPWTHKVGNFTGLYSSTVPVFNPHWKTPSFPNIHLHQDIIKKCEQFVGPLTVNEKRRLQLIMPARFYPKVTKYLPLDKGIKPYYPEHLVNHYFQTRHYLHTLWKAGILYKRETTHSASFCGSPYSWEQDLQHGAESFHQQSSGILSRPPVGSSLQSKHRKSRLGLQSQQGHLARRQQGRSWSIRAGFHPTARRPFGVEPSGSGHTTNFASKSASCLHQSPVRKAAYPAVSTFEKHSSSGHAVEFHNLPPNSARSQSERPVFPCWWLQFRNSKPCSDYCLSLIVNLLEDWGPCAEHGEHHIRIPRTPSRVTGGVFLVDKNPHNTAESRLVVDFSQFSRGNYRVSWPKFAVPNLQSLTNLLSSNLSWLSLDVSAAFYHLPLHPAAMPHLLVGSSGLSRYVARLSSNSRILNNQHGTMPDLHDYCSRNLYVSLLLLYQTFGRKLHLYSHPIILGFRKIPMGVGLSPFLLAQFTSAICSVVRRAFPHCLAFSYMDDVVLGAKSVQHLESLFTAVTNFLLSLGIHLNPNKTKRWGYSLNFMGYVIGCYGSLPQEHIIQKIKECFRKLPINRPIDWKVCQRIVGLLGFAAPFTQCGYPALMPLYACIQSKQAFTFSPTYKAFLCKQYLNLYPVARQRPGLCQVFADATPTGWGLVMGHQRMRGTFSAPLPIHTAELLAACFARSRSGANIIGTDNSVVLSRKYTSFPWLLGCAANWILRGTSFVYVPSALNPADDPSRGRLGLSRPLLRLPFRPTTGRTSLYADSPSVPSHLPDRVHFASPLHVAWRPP

Compound: CCCCCCCCCN1C[C@H](O)[C@@H](O)[C@@H](O)[C@H]1CO [N-nonyl DGJ, N-nonyl-1,5-dideoxy-1,5-imino-D-galactitol]
- Reduction of intracellular HBV DNA (HBV [1]; 2 or 20 μg/ml): greater than 25 fold
- Effect on intracellular HBV DNA (HBV [1]; 3TC 1 μg/ml, NB-DNJ 1000 μg/ml, NN-DNJ and NN-DGJ 2 or 20 μg/ml): almost complete disappearance of intracellular HBV DNA
- Effect on HBV polymerase activity (HBV polymerase): no effect on polymerase activity
- Decrease of secreted virus DNA (HBV [2]): about 14 fold
- IC50 (BVDV; Bovine viral diarrhea virus isolates and strains, MDBK, read-out: Anti-viral effect on BVDV in MDBK cells IC50): 5 µM
- Anti-viral effect on BVDV in MDBK cells (BVDV; Yes/No): Yes
- TOX 50 (MTT activity reduced to 50%) (Hep G2.2.15 cells): >200 µM
- Inhibitor of α glucosidase (α-glucosidase): No
- Reduction of enveloped HBV in the culture medium (Hepatitis B virus (HBV); Hep G2.2.15 cells, compared with untreated controls, nine days): at least as effective as NN-DNJ in reducing the HBV secretion
- IC50 (Hepatitis B virus (HBV); HepG2.2.15, 216 h, Hep G2.2.15 cells, nine days of incubation, read-out: IC 50, secretion of HBV): 1.5 to 5 µM
- IC50 (Hepatitis B virus (HBV); HepG2.2.15, read-out: IC50, HBV secretion): ~0.5 µM
- CC50 [3]: 250 µM
